Source: PubChem BioAssay (NCI)
Where “and” joins values, the source holds several entries; their conditions need not be identical. Equal entries are not always repeated.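 Results reflect a 48-hour exposure of cells in 96-well plates to compound at five concentrations. Here, GI50 denotes the concentration required for 50% inhibition of growth. TGI: concentration producing complete growth inhibition.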 *1 amine or outer side, *2 acyl side, *3 side chain or, on linkers, in order; H or OH if unused. Where a SMILES comes first, the peptide text is derived from it. Bridges are numbered along the chain shown (N, C = ends). [ ]: non-standard residue; d: D form. The star is where a group is joined. Phe(3,5-F2) = N[C@@H](Cc1cc(F)cc(F)c1)C(=O)O; Pro(4R-Me) = C[C@H]1CN[C@H](C(=O)O)C1; aThr = C[C@H](O)[C@H](N)C(=O)O; Pip = O=C(O)[C@@H]1CCCCN1; X10 = Fc1cc(C2CC2)ccc1N*; CO = O=C([*:1])[*:2]

Tests used:
Test in all cases: growth of human tumour cells (NCI), 48 h
[1] = tested on: 786-0 renal
[2] = tested on: ACHN renal
[3] = tested on: CCRF-CEM leukemia
[4] = tested on: COLO 205 colon
[5] = tested on: HL-60(TB) leukemia
[6] = tested on: NCI-H522 lung
[7] = tested on: OVCAR-5 ovarian
[8] = tested on: SF-268 CNS
[9] = tested on: SK-OV-3 ovarian
[10] = tested on: SNB-75 CNS

SMILES	GI50 [1] [µM]	TGI [1] [µM]	GI50 [2] [µM]	TGI [2] [µM]	GI50 [3] [µM]	TGI [3]	GI50 [4] [µM]	TGI [4]	GI50 [5] [µM]	TGI [5]	GI50 [6] [µM]	TGI [6]	GI50 [7] [µM]	TGI [7]	GI50 [8] [µM]	TGI [8] [µM]	GI50 [9] [µM]	TGI [9] [µM]	GI50 [10] [µM]	TGI [10] [µM]
Cn1cc(C2=C(c3c4n(c5ccccc35)CCCCC4)C(=O)NC2=O)c2ccccc21	7.76	> 25	6.05	> 25	5.21	> 22.7 µM	4.56	> 18.8 µM	1.39	16.2 µM	1.02	8.14 µM	> 19.5	> 25 µM	4.9	> 25	7.11	> 25	1.4	11.6
OC1CSSC1Cn1cnc2c(Nc3ccc(OCc4cccc(F)c4)c(Cl)c3)ncnc21 (stereo not drawn)	5.67	11.9	1.7	5.67	0.656	13.9 µM	2.83	8.69 µM	3.47	20.8 µM	1.12	4.15 µM	3.83	10.2 µM	0.56	2.9	0.75	1.75	4.16	8.8
COc1cc2c(cc1OCCCCN1CCN(CC(=O)Nc3ccc(Cl)cc3C(=O)c3ccccc3Cl)CC1)N=CC1CCCN1C2=O (stereo not drawn)	0.205	0.456	0.431	1.01	0.159	0.434 µM	0.175	0.335 µM	0.273	–	0.107	0.316 µM	0.324	0.939 µM	0.268	0.711	0.38	1.22	0.223	0.572
CCOC(=O)Cn1c(C(F)(F)F)nc2nc(Cl)c(Cl)nc21	–	> 100	–	> 67.9	–	> 69.5 µM	–	> 100 µM	–	42.9 µM	–	58.2 µM	–	> 100 µM	–	> 100	–	> 100	–	> 100
CCOC(=O)/C=C/CC(C)(C)CCOC(C)=O	–	> 10	–	> 10	–	> 10 µM	–	> 10 µM	–	> 10 µM	–	> 10 µM	–	> 10 µM	–	> 10	–	> 10	–	> 10
NC(=O)NO.O.O.O.O.O.O.O.O.O.O.O.[Ge].[Ge].[Ge].[Ge].[Ge].[O]=[Ge].[O]=[Ge].[O]=[Ge].[O]=[Ge].[O]=[Ge][OH]	–	> 100	–	> 100	–	> 81.6 µM	–	> 100 µM	–	12.6 µM	–	> 100 µM	–	> 100 µM	–	> 100	–	> 100	–	> 100
Cc1nc2c(ccc3ncccc32)[nH]1	–	> 100	–	> 100	–	> 100 µM	–	> 100 µM	–	> 100 µM	–	> 100 µM	–	> 100 µM	–	> 100	–	> 100	–	> 100
CC1CCc2nc[nH]c(=O)c21 (stereo not drawn)	> 100	> 100	> 100	> 100	> 100	> 100 µM	> 100	> 100 µM	> 100	> 100 µM	> 100	> 100 µM	> 100	> 100 µM	> 100	> 100	> 100	> 100	> 100	> 100
Cc1c(C(=O)C/C(=N/NC(=O)c2ccccc2O)C(=O)Nc2ccccc2C(C)C)[n+](=O)c2ccccc2n1[O-]	–	> 100	–	> 100	–	28.8 µM	–	> 100 µM	–	38.3 µM	–	65.8 µM	–	> 100 µM	–	> 100	–	> 100	–	> 100
O=C(Nc1ccc(F)cc1)Nc1ccc(Cl)c([N+](=O)[O-])c1	3.37	13.2	2.96	11	3.3	> 100 µM	2.48	6.31 µM	2.5	8.56 µM	2.44	10.8 µM	3.55	14.9 µM	4.42	17.3	2.62	7.52	5.93	> 100
O=C(Nc1ccc(-n2ccc3c(NC(=O)c4ccccc4)nccc32)cc1)c1ccc(Cl)c(C(F)(F)F)c1	0.606	9.93	0.487	15.4	0.128	2.17 µM	1.83	11 µM	0.687	9.78 µM	0.811	9.59 µM	3.84	27.3 µM	1.08	11.9	1.18	20.7	0.625	16.5
C=CCO[C@H]1CO[C@H]2[C@@H]1OC[C@@H]2Oc1ccc(Nc2ccnc(Nc3ccc(O[C@H]4CO[C@H]5[C@@H]4OC[C@@H]5OCC=C)c(Cl)c3)n2)cc1Cl	1.87	3.37	1.77	3.31	0.652	3.43 µM	1.6	4.06 µM	1.62	3.78 µM	1.96	4.24 µM	1.83	3.29 µM	1.98	3.76	16.8	31.2	1.86	3.31
Cc1ccc(NC(=O)Nc2ccc(-c3cccnc3)cc2N2CCC(CO)CC2)cc1	2.58	7.25	6.68	> 100	3.57	> 100 µM	2.85	11.1 µM	2.64	7.38 µM	1.66	5.12 µM	3.64	> 100 µM	3.05	> 100	3.93	> 100	1.26	5.03
Cc1cc(-c2nc(C(=O)Nc3cc4oc(N5CCOCC5)nc4nc3N3CC[C@@H](O)C3)co2)ccn1	68.7	> 100	17.9	93.7	29.4	> 100 µM	37.2	> 100 µM	35.2	> 100 µM	20	> 100 µM	> 100	> 100 µM	61.7	> 100	16.6	66.9	9.41	69.2
C=CC(=O)Nc1cc(Nc2ncc(C(=O)OC(C)C)c(-c3cn(C)c4ccccc34)n2)c(OC)cc1N(C)CCN(C)C	3.15	12.9	0.0218	12.1	3.18	17.8 µM	3.2	> 22.2 µM	1.47	3.7 µM	0.02	5.74 µM	2.72	18.1 µM	6.88	24.1	< 0.01	16.7	1.93	10.3
CCOC(=O)CCC1(C(=O)OCC)CCCCC1=O (stereo not drawn)	–	> 100	–	> 100	–	> 100 µM	–	> 100 µM	–	> 100 µM	–	> 100 µM	–	> 100 µM	–	> 100	–	> 100	–	> 100
COc1cc2cc(OC)c3cc4c(cc3c2c(OC)c1OC)OCO4	–	> 90.4	–	> 100	–	37.9 µM	–	44.4 µM	–	45.7 µM	–	56.6 µM	–	90.9 µM	–	> 100	–	> 100	–	> 46.1
O=C(O)CCNCCCNCCC(=O)O	–	> 100	–	> 100	–	> 100 µM	–	> 100 µM	–	> 100 µM	–	> 100 µM	–	> 100 µM	–	> 100	–	> 100	–	> 100
Cc1ccc(CN2CCC(C(=O)Nc3ccc(-c4cc5ccccc5[nH]4)cc3)CC2)o1	98.9	> 100	> 100	> 100	> 100	> 100 µM	71	> 100 µM	> 100	> 100 µM	> 100	> 100 µM	> 100	> 100 µM	> 100	> 100	> 100	> 100	12.7	33.1
COc1cccc(C2c3cc4c(cc3OC(C)(N3CCCC3)C2C)OCO4)c1O (stereo not drawn)	–	> 56	–	> 83.1	–	21.2 µM	–	10.4 µM	–	6.01 µM	–	6.01 µM	–	77.3 µM	–	> 72.5	–	38.4	–	17.2
Nc1c(C(=O)c2cccc(CCS(N)(=O)=O)c2)cnn1-c1ccc(F)cc1	> 25	> 25	> 25	> 25	> 25	> 25 µM	> 25	> 25 µM	> 25	> 25 µM	> 25	> 25 µM	> 25	> 25 µM	> 25	> 25	> 25	> 25	> 25	> 25
NC(N)=NS(=O)(=O)c1ccc(Nc2c3ccccc3nc3c(C(=O)NCCO)cccc23)cc1	21	–	20	–	19.9	> 100 µM	33.6	–	16.9	–	16.6	–	22.4	–	16.3	–	51.6	–	–	55.2
COc1ccc(CC2c3cc4c(cc3CCN2C)OCO4)c(C=O)c1OC (stereo not drawn)	–	> 100	–	> 100	–	> 100 µM	–	> 100 µM	–	> 100 µM	–	> 100 µM	–	> 100 µM	–	> 100	–	> 100	–	> 100
CC(=O)[CH-]C(=O)c1ccccc1.CC(=O)[CH-]C(=O)c1ccccc1.CN(C)c1ccc([O-])cc1.CN(C)c1ccc([O-])cc1.Cl.[Ti+4]	22.8	> 31.6	16.9	> 31.6	9.65	> 31.6 µM	14.9	22.5 µM	20.9	> 31.6 µM	12.3	24 µM	49.2	> 100 µM	> 31.6	> 31.6	17.1	> 31.6	> 31.6	> 31.6
Cc1nc2sccn2c1-c1csc(Nc2ccccc2Cl)n1	3.47	15.7	4.52	62.3	3.32	53.2 µM	5.87	21 µM	3	29.2 µM	2.08	15.7 µM	9.58	75.1 µM	8.33	86.5	8.4	75.2	4.08	60.3
O=C(Nc1ccccc1)c1c(O)[nH]c(=S)[nH]c1=O	–	92.1	–	78.7	71.2	83.3 µM and > 250 µM	39.3	64.1 µM and 105 µM	80.4	67.3 µM and > 250 µM	83	58.3 µM and > 250 µM	89.6	110 µM and > 250 µM	–	125	–	122	–	91.9
COc1ccc2c(c1)sc1nc(-c3ccccc3)c(-c3cccc4ccccc34)n12	0.848	> 100	0.76	> 100	0.45	> 100 µM	0.292	0.855 µM	0.148	–	0.661	28.2 µM	2.07	> 100 µM	0.878	> 100	0.369	2.79	0.386	> 100
C[C@@H]1C[C@H]2C(=O)O[C@@H](C)[C@H](NC(=O)[C@H](Cc3cc(F)cc(F)c3)NC(=O)Nc3ccc(C4CC4)cc3F)C(=O)N3CCC[C@H]3C(=O)N3CCCC[C@H]3C(=O)N[C@@H](C)C(=O)N2C1 ({X10-CO}-[Phe(3,5-F2)][aThr]P[Pip]A[Pro(4R-Me)]; ester 2-C)	0.0817	> 38.4	0.0984	8.12	0.0522	> 100 µM	0.0351	1.19 µM	0.0387	1.82 µM	0.0441	–	0.0575	3.39 µM	0.049	> 46.9	0.0504	16	0.0485	49.9
